Data published in the NIST ThermoML archive (doi:10.1016/j.jct.2015.12.019).
Numbers after ± are expanded uncertainties.

Test: refractive index (Na D-line) (dimensionless)
Conditions: 303.15 K; 101.33 kPa; Liquid; Standard Abbe refractometry

refractive index | Compound
1.3913 ± 0.018 | CC(C)C(=O)O [2-methylpropanoic acid]
1.3844 ± 0.018 | CCCCCCC [heptane]
1.4815 ± 0.018 | O=S1(=O)CCCC1 [sulfolane]
